Data as given in PubChem BioAssay (NCI).
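Each compound was tested at five concentrations against cells in 96-well plates for 48 hours. At the GI50, growth is halved. Definition used: TGI = concentration required for complete inhibition of growth.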

Key:
Experiment in all cases: NCI-60 cell line screen, 48 h
LOX IMVI melanoma = test system: LOX IMVI melanoma
UO-31 renal = test system: UO-31 renal
HS 578T breast = test system: HS 578T breast
SK-OV-3 ovarian = test system: SK-OV-3 ovarian
SK-MEL-5 melanoma = test system: SK-MEL-5 melanoma
UACC-257 melanoma = test system: UACC-257 melanoma
HOP-62 NSCLC = test system: HOP-62 NSCLC
HCT-116 colon = test system: HCT-116 colon
SN12C renal = test system: SN12C renal
U251 CNS = test system: U251 CNS

COc1cc2c3c(n(CCCCN)c(=O)c2cc1OC)-c1cc2c(cc1C3=O)OCO2
GI50 (LOX IMVI melanoma): 0.107 µM
TGI (LOX IMVI melanoma): 0.529 µM
GI50 (UO-31 renal): 2.97 µM
TGI (UO-31 renal): 12 µM
GI50 (HS 578T breast): 4.6 µM
TGI (HS 578T breast): 11.8 µM
GI50 (SK-OV-3 ovarian): 1.23 µM
TGI (SK-OV-3 ovarian): 9.41 µM
GI50 (SK-MEL-5 melanoma): 1.6 µM
TGI (SK-MEL-5 melanoma): 6.4 µM
GI50 (UACC-257 melanoma): 3.35 µM
TGI (UACC-257 melanoma): 25 µM
GI50 (HOP-62 NSCLC): 0.322 µM
TGI (HOP-62 NSCLC): 1.21 µM
GI50 (HCT-116 colon): 0.234 µM
TGI (HCT-116 colon): 0.797 µM
GI50 (SN12C renal): 0.0583 µM
TGI (SN12C renal): 0.235 µM
GI50 (U251 CNS): 0.407 µM
TGI (U251 CNS): 2.86 µM

NC(=O)c1ccc(I)c(N=O)c1
GI50 (LOX IMVI melanoma): 16.7 µM
TGI (LOX IMVI melanoma): 31.8 µM
GI50 (UO-31 renal): 19.9 µM
TGI (UO-31 renal): 57.8 µM
GI50 (HS 578T breast): 38.5 µM
TGI (HS 578T breast): > 100 µM
GI50 (SK-OV-3 ovarian): > 100 µM
TGI (SK-OV-3 ovarian): > 100 µM
GI50 (SK-MEL-5 melanoma): 34.2 µM
TGI (SK-MEL-5 melanoma): > 100 µM
GI50 (UACC-257 melanoma): 35.3 µM
TGI (UACC-257 melanoma): > 100 µM
GI50 (HOP-62 NSCLC): 57.6 µM
TGI (HOP-62 NSCLC): > 100 µM
GI50 (HCT-116 colon): 18.6 µM
TGI (HCT-116 colon): 32.8 µM
GI50 (SN12C renal): 55.8 µM
TGI (SN12C renal): > 100 µM
GI50 (U251 CNS): 18.6 µM
TGI (U251 CNS): 36.8 µM

COc1cc(Nc2c(C#N)cnc3cc(OCCCN4CCN(C)CC4)c(OC)cc23)c(Cl)cc1Cl
GI50 (LOX IMVI melanoma): 1.15 µM
TGI (LOX IMVI melanoma): 2.75 µM
GI50 (UO-31 renal): 0.687 µM
TGI (UO-31 renal): 7.75 µM
GI50 (HS 578T breast): 1.6 µM
TGI (HS 578T breast): 26 µM
GI50 (SK-OV-3 ovarian): 0.884 µM
TGI (SK-OV-3 ovarian): 12.3 µM
GI50 (SK-MEL-5 melanoma): 2.09 µM
TGI (SK-MEL-5 melanoma): 5.71 µM
GI50 (UACC-257 melanoma): 1.76 µM
TGI (UACC-257 melanoma): 3.46 µM
GI50 (HOP-62 NSCLC): 4.69 µM
TGI (HOP-62 NSCLC): 17.6 µM
GI50 (HCT-116 colon): 0.746 µM
TGI (HCT-116 colon): 4.71 µM
GI50 (SN12C renal): 0.308 µM
TGI (SN12C renal): 14.4 µM
GI50 (U251 CNS): 3.1 µM
TGI (U251 CNS): 8.37 µM

CNC(=O)c1cccc2cc(Oc3ccnc4cc(OCC5(N)CC5)c(OC)cc34)ccc12
GI50 (LOX IMVI melanoma): 3.89 µM
TGI (LOX IMVI melanoma): 17.1 µM
GI50 (UO-31 renal): 2.57 µM
TGI (UO-31 renal): 8.16 µM
GI50 (HS 578T breast): 5.5 µM
TGI (HS 578T breast): 30.2 µM
GI50 (SK-OV-3 ovarian): 12.1 µM
TGI (SK-OV-3 ovarian): 26.3 µM
GI50 (SK-MEL-5 melanoma): 13.4 µM
TGI (SK-MEL-5 melanoma): 26.7 µM
GI50 (UACC-257 melanoma): 16.5 µM
TGI (UACC-257 melanoma): 32.2 µM
GI50 (HOP-62 NSCLC): 10.7 µM
TGI (HOP-62 NSCLC): 27.6 µM
GI50 (HCT-116 colon): 5.2 µM
TGI (HCT-116 colon): 17.8 µM
GI50 (SN12C renal): 6.01 µM
TGI (SN12C renal): 24.1 µM
GI50 (U251 CNS): 9.43 µM
TGI (U251 CNS): 23.3 µM

COc1cc2oc3cc(=O)cc4oc(-c5ccccc5)cc(c2c2c1CCC(c1ccccc1)O2)c43 (stereo not given)
TGI (LOX IMVI melanoma): > 100 µM
TGI (UO-31 renal): > 100 µM
TGI (HS 578T breast): > 100 µM
TGI (SK-OV-3 ovarian): > 100 µM
TGI (SK-MEL-5 melanoma): 65.1 µM
TGI (UACC-257 melanoma): 69 µM
TGI (HOP-62 NSCLC): > 100 µM
TGI (HCT-116 colon): > 100 µM
TGI (SN12C renal): > 100 µM
TGI (U251 CNS): > 100 µM

COC(=O)[C@@]12OC[C@]34[C@H]([C@@H](O)[C@@H]1O)[C@@]1(C)[C@H](O)C(=O)C=C(C)[C@@H]1C[C@H]3OC(=O)C(OC(C)=O)[C@@H]24 (stereo not given in full)
GI50 (LOX IMVI melanoma): 0.0152 µM
TGI (LOX IMVI melanoma): 0.0311 µM
GI50 (UO-31 renal): 0.113 µM
TGI (UO-31 renal): 0.449 µM
GI50 (HS 578T breast): 0.0193 µM
TGI (HS 578T breast): 0.0523 µM
GI50 (SK-OV-3 ovarian): 0.0522 µM
TGI (SK-OV-3 ovarian): 1.12 µM
GI50 (SK-MEL-5 melanoma): 0.0162 µM
TGI (SK-MEL-5 melanoma): 0.0406 µM
GI50 (UACC-257 melanoma): 0.0668 µM
TGI (UACC-257 melanoma): 0.428 µM
GI50 (HOP-62 NSCLC): 0.0294 µM
TGI (HOP-62 NSCLC): 0.156 µM
GI50 (HCT-116 colon): 0.022 µM
TGI (HCT-116 colon): 0.0503 µM
GI50 (SN12C renal): 0.046 µM
TGI (SN12C renal): 0.307 µM
GI50 (U251 CNS): 0.0207 µM
TGI (U251 CNS): 0.0443 µM

O=c1oc(Cl)c(Cl)c2ccccc12
GI50 (LOX IMVI melanoma): 17.6 µM
TGI (LOX IMVI melanoma): 51.9 µM
GI50 (UO-31 renal): 22.4 µM
TGI (UO-31 renal): 47.9 µM
GI50 (HS 578T breast): 35.1 µM
TGI (HS 578T breast): 96.2 µM
GI50 (SK-OV-3 ovarian): 59.8 µM
TGI (SK-OV-3 ovarian): > 100 µM
GI50 (SK-MEL-5 melanoma): 16.5 µM
TGI (SK-MEL-5 melanoma): 37 µM
GI50 (UACC-257 melanoma): 93.8 µM
TGI (UACC-257 melanoma): > 100 µM
GI50 (HOP-62 NSCLC): 25.9 µM
TGI (HOP-62 NSCLC): 48.9 µM
GI50 (HCT-116 colon): 31.9 µM
TGI (HCT-116 colon): 71.8 µM
GI50 (SN12C renal): 14.8 µM
TGI (SN12C renal): 31.4 µM
GI50 (U251 CNS): 21.2 µM
TGI (U251 CNS): 52.1 µM

CC1OC(n2c3ccccc3c3c4c(c5c6ccccc6[nH]c5c32)C(=O)N(CCN[C@@H]2CCC[C@H]2N)C4=O)CC(O)C1O (stereo not given in full)
GI50 (LOX IMVI melanoma): 0.835 µM
TGI (LOX IMVI melanoma): 2.68 µM
GI50 (UO-31 renal): 6.45 µM
TGI (UO-31 renal): 15 µM
GI50 (HS 578T breast): 1.63 µM
TGI (HS 578T breast): 9.73 µM
GI50 (SK-OV-3 ovarian): 2.51 µM
TGI (SK-OV-3 ovarian): 9.09 µM
GI50 (SK-MEL-5 melanoma): 1.22 µM
TGI (SK-MEL-5 melanoma): 3.68 µM
GI50 (UACC-257 melanoma): 3.73 µM
TGI (UACC-257 melanoma): 10.5 µM
GI50 (HOP-62 NSCLC): 1.74 µM
TGI (HOP-62 NSCLC): 7.24 µM
GI50 (HCT-116 colon): 1.32 µM
TGI (HCT-116 colon): 5.54 µM
GI50 (SN12C renal): 1.48 µM
TGI (SN12C renal): 6.5 µM
GI50 (U251 CNS): 1.05 µM
TGI (U251 CNS): 5.74 µM

O=S(=O)(Nc1ccc(Br)c(Cl)c1)c1ccc(-c2cnc(C3CC3)o2)cc1
GI50 (LOX IMVI melanoma): 0.565 µM
TGI (LOX IMVI melanoma): 16.2 µM
GI50 (UO-31 renal): 1.11 µM
TGI (UO-31 renal): 13.6 µM
GI50 (HS 578T breast): 0.351 µM
TGI (HS 578T breast): 18.3 µM
GI50 (SK-OV-3 ovarian): 1.49 µM
TGI (SK-OV-3 ovarian): 24.2 µM
GI50 (SK-MEL-5 melanoma): 0.602 µM
TGI (SK-MEL-5 melanoma): 13.9 µM
GI50 (UACC-257 melanoma): 2.08 µM
TGI (UACC-257 melanoma): 25.9 µM
GI50 (HOP-62 NSCLC): 0.58 µM
TGI (HOP-62 NSCLC): 19 µM
GI50 (HCT-116 colon): 0.432 µM
TGI (HCT-116 colon): 13.6 µM
GI50 (SN12C renal): 1.27 µM
TGI (SN12C renal): 16 µM
GI50 (U251 CNS): 0.507 µM
TGI (U251 CNS): 15.4 µM

COc1cccc(-n2nc(C)c3c(N/N=C(\C)c4ccncc4)ncnc32)c1
GI50 (LOX IMVI melanoma): > 25 µM
TGI (LOX IMVI melanoma): > 25 µM
GI50 (UO-31 renal): 13.8 µM
TGI (UO-31 renal): > 25 µM
GI50 (HS 578T breast): > 25 µM
TGI (HS 578T breast): > 25 µM
GI50 (SK-OV-3 ovarian): 13.4 µM
TGI (SK-OV-3 ovarian): > 25 µM
GI50 (SK-MEL-5 melanoma): 3.02 µM
TGI (SK-MEL-5 melanoma): > 25 µM
GI50 (UACC-257 melanoma): > 25 µM
TGI (UACC-257 melanoma): > 25 µM
GI50 (HOP-62 NSCLC): > 25 µM
TGI (HOP-62 NSCLC): > 25 µM
GI50 (HCT-116 colon): > 24.2 µM
TGI (HCT-116 colon): > 25 µM
GI50 (SN12C renal): > 25 µM
TGI (SN12C renal): > 25 µM
GI50 (U251 CNS): > 22.2 µM
TGI (U251 CNS): > 25 µM

Cc1ccc(C(CC(=O)c2ccccc2)C2C(=O)NC(=O)NC2=O)cc1 (stereo not given)
GI50 (LOX IMVI melanoma): > 100 µM
TGI (LOX IMVI melanoma): > 100 µM
GI50 (UO-31 renal): > 100 µM
TGI (UO-31 renal): > 100 µM
GI50 (HS 578T breast): > 100 µM
TGI (HS 578T breast): > 100 µM
GI50 (SK-OV-3 ovarian): > 100 µM
TGI (SK-OV-3 ovarian): > 100 µM
GI50 (SK-MEL-5 melanoma): > 100 µM
TGI (SK-MEL-5 melanoma): > 100 µM
GI50 (UACC-257 melanoma): > 100 µM
TGI (UACC-257 melanoma): > 100 µM
GI50 (HOP-62 NSCLC): > 100 µM
TGI (HOP-62 NSCLC): > 100 µM
GI50 (HCT-116 colon): > 100 µM
TGI (HCT-116 colon): > 100 µM
GI50 (SN12C renal): > 100 µM
TGI (SN12C renal): > 100 µM
GI50 (U251 CNS): > 100 µM
TGI (U251 CNS): > 100 µM

C[C@]12CCc3sc(NCCc4ccccc4)nc3C1=CC[C@@H]1[C@@H]2CC[C@]2(C)C(=O)CC[C@@H]12
GI50 (LOX IMVI melanoma): 1.7 µM
TGI (LOX IMVI melanoma): 3.17 µM
GI50 (UO-31 renal): 4.03 µM
TGI (UO-31 renal): 25.1 µM
GI50 (HS 578T breast): 2.85 µM
TGI (HS 578T breast): > 100 µM
GI50 (SK-OV-3 ovarian): > 100 µM
TGI (SK-OV-3 ovarian): > 100 µM
GI50 (SK-MEL-5 melanoma): 4.57 µM
TGI (SK-MEL-5 melanoma): 52.7 µM
GI50 (UACC-257 melanoma): 4.92 µM
TGI (UACC-257 melanoma): 79.8 µM
GI50 (HOP-62 NSCLC): 8.52 µM
TGI (HOP-62 NSCLC): > 100 µM
GI50 (HCT-116 colon): 2.87 µM
TGI (HCT-116 colon): 12.3 µM
GI50 (SN12C renal): 2.89 µM
TGI (SN12C renal): > 100 µM
GI50 (U251 CNS): 4.97 µM
TGI (U251 CNS): > 100 µM
